# Assays:
# [1] = biological target: T1, CerS5 (Homo sapiens (Human), UniProt Q8N5B7); experiment: Inhibition of ceramide synthesis (CerS5) measured in vitro; type: biochemical
# Procedure: (§1) Ceramide synthase assays were carried out as follows. Cell homogenates were incubated with 15 μM NBD-SPH, 20 μM defatted bovine serum albumin, and 50 μM fatty acyl CoA in a 20 μl reaction volume at 37° C. Reactions were terminated by addition of chloroform/methanol (1:2, v/v) and lipids extracted. Lipids were dried under N2, re-suspended in chloroform/methanol (9:1, v/v) and separated by TLC using chloroform/methanol/2M NH4OH (40:10:1, v/v/v) as the developing solvent. NBD-labelled lipids were visualized using a Typhoon 9410 variable mode imager and quantified by ImageQuantTL (GE Healthcare, Chalfont St Giles, UK).
# [2] = system: P. aeruginosa strain 762; experiment: P. aeruginosa strain 762 killing assay; type: cell-based; details: Pseudomonas aeruginosa; P. aeruginosa strain 762, 2 hours at 37° C., colonies counted
# Procedure: Incubation of bacteria with the sphingosine analogs presented herein was carried out as follows. P. aeruginosa strain 762 was grown in LB medium at 37° C. until the early logarithmic phase (OD550 of 0.2). Bacteria were diluted in PBS (without Ca^+2 and Mg^+2) to a concentration of 5×10^3 CFU/ml. Stock solutions of sphingolipid analogs in 5 mM in 7.5% n-octyl-β-D-glucopyranoside (OGP) or in dimethyl sulfoxide (DMSO) were prepared by sonication and warming to 40° C. The sphingosine analogs presented herein were added to the bacteria (0.05-200 μM in 0.075% OGP or 1% DMSO). Bacteria were incubated with the sphingosine analogs presented herein for 2 hours at 37° C., and 200 μl of a bacteria solution plated on LB agar plates, incubated overnight at 37° C., and colonies counted.
# The ability of the sphingo sine analogs presented herein to kill Pseudomonas aeruginosa in vitro, and based on the data shown below, concluded that the SPH analogs presented herein are highly efficient in killing bacteria. Compounds 791598 and 791577 were used as activity assay control references.
# FIGS. 1A-D present comparative plots, showing the results of the P. aeruginosa strain 762 killing assay, conducted for sphingosine analogs presented herein.
# [3] = biological target: T1, CerS5; experiment: N-acylation by CerS5 using labeled palmitoyl CoA, relative to sphinganine; type: biochemical; details: for Rate of N-Acylation / Rate of N-Acylation (either pmol/mg/min or % of control): CerS5, labeled palmitoyl CoA; for Rate of N-Acylation: n=1-2; for N-Acylation using 14C labeled palmitoyl CoA: Yes/No, CerS5; for Rate of N-Acylation (% of control): control sphinganine = 100% acylation; for Rate of N-Acylation (either pmol/mg/min or % of control): unit not given
# Procedure: (§2) N-acylation was determined by incubating homogenates with 15 μM dhSo, 20 μM defatted BSA and 0.01 uCi C16-[14C] acyl-CoA/46 μM C16 acyl-CoA in a final volume of 250 μl.
# An additional assay determined whether the sphingosine analogs presented herein are N-acylated by CerS5 expressed, relative to sphinganine (control; 100% acylation), using labeled palmitoyl CoA (n=1-2).
# [4] = biological target: T1, CerS5; experiment: CerS5 activity/inhibition assay using NBD sphinganine; type: biochemical; details: read-out: CerS5 activity (percentage of control); for remaining activity at 25 µM: 25 μM compound; for remaining activity at 50 µM: 50 μM compound; for remaining activity at 75 µM: 75 μM compound
# Procedure: as §1
# Table 4 below presents the results for the CerS5 activity/inhibition assay using NBD sphinganine (given as percentage of control).
# [5] = system: ceramide synthases (CerS); experiment: N-acylation by ceramide synthases using 14C labeled CoA; type: biochemical; details: 14C labeled CoA as a substrate; raw data not shown
# Procedure: as §2
# To determine whether the sphingosine analogs presented herein can be metabolized by ceramide synthases (CerS—natural sphingosine is a substrate for CerS), their N-acylation using ^14C labeled CoA as a substrate was examined.
# [6] = system: P. aeruginosa; details: injected immediately prior to infection, or an hour after infection; cited from earlier work
# T1 sequence (Q8N5B7 whole entry, species assumed): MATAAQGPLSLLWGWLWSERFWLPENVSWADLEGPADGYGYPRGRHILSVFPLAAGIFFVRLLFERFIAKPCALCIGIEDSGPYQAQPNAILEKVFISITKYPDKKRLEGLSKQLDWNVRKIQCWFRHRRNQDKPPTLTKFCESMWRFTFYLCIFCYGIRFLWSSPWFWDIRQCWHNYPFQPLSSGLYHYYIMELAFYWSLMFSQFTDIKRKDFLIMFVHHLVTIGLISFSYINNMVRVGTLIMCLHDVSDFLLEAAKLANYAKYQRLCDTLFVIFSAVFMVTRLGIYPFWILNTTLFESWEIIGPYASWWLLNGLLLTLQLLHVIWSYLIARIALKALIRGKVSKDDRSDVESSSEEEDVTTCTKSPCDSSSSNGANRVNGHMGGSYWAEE
SMILES,CerS5 activity (% of control) [1],EC50 [2] [µM],Rate of N-Acylation [3] [pmol/mg/min],N-Acylation using 14C labeled palmitoyl CoA [3],Rate of N-Acylation (% of control) [3],Rate of N-Acylation (either pmol/mg/min or % of control) [3],remaining activity at 25 µM [4] [%],remaining activity at 50 µM [4] [%],remaining activity at 75 µM [4] [%],N-acylation by CerS (substrate or not) [5],P. aeruginosa infection in CF mice [6]
CCCCCCCCCC/C=C/CCC(N)(N)CN [Compound 791582],68.2 ± 10.4 % of control,0.54 ± 0.18,14.4 ± 7.7,No,(2.72% of control),,,,,,
CCCCCCCCCCCCCCNC(=O)[C@H](N)CN [Compound 791993],,0.94 ± 0.322,,,,0.98 ± 0.09 pmol/mg/min or % of control,,,,,
CCCCCCCCCCCCc1ccc(NC(=O)[C@H](N)CN)cc1 [Compound 791996],,0.81 ± 0.24,,No,,0.02 ± 0.003 pmol/mg/min or % of control,96.7 ± 12.8,104 ± 21.2,105 ± 13.9,not substrates for CerS,
CCCCC/C=C\C/C=C\CCCCCCCC[C@H](O)[C@@H](N)CO [Compound 791602],57.3 ± 12.2 % of control,,146.9 ± 0.0,Yes,(27.76% of control),,,,,,
CCCCCCCCCC/C=C/CCC(N)(O)CO (centres unmarked) [Compound 791581],71.5 ± 19.0 % of control,1.09 ± 0.31,4.2 ± 4.5,No,(0.79% of control),,,,,,
CCCCCCCCCCCCCCC[C@H](O)[C@H](CN)N(C)C [Compound 791578],90.2 ± 16.4 % of control,1.44 ± 0.76,55.0 ± 6.0,No,(10.39% of control),,,,,,
CCCCCCCCCCCCCCC[C@H](N)[C@H](CN)N(C)C [Compound 791580],58.1 ± 20.1 % of control,0.39 ± 0.06,6.1 ± 2.6,No,(1.15% of control),,,,,,
CCCCCCCCCCCCc1ccc(NC(=O)[C@@H](N)CN)cc1 [Compound 791995],,0.87 ± 0.091,,No,,0.14 ± 0.004 pmol/mg/min or % of control,107 ± 24,119 ± 20.9,109 ± 26.9,not substrates for CerS,
"CCCCCCCCCCCCCCC[C@@H](O)[C@@H](N)CO [sphinganine, reference compound]",100 ± 0 % of control,,,,,,,,,,
CCCCCCCCCCCCCCC[C@@H](O)[C@H](N)CN [Compound 791597],125.0 ± 31.1 % of control,0.89 ± 0.23,18.8 ± 12.3,No,(3.55% of control),,,,,,
CCCCCCCCCCCCC/C=C/[C@@H](O)[C@@H](N)CO [sphingosine],,,,,,,,,,,completely blocked
"CCCCCCCCc1ccc(CCC(N)(CO)CO)cc1 [FTY720, fingolimod]",,,,,,,,,,,completely blocked
CCCCCCCCCCCCCCC[C@H](O)[C@H](CO)N(C)C [Compound 791577],92.9 ± 28.7 % of control,> 2.5,4.7 ± 2.4,No,(0.89% of control),,,,,,
CCCCCCCCCCCCCCNC(=O)[C@@H](N)CN [Compound 791994],,1.31 ± 0.4,,Yes,,25.42 ± 6.97 pmol/mg/min or % of control,,,,,
CCCCCCCCCCCCc1ccc(NC(=O)C(O)CN)cc1 (centres unmarked) [Compound 792211],,0.26 ± 0.09,,Yes,,114.21 ± 3.11 pmol/mg/min or % of control,163 ± 37.9,73.5 ± 8.98,49.8 ± 26.6,,
CCCCCCCCCCCCCCCCCCNC(=O)C(N)CN (centres unmarked) [Compound 792209],,> 2.5,,No,,,,,,,
CCCCCCCCCCCCCCC[C@@H](N)[C@H](CN)N(C)C [Compound 791579],69.2 ± 8.9 % of control,0.58 ± 0.14,4.1 ± 3.0,No,(0.77% of control),,,,,,
CCCCCCCCCCCCCCc1ccc(NC(=O)C(N)CN)cc1 (centres unmarked) [Compound 792205],,0.61 ± 0.2,,No,,5.21 ± 1.33 pmol/mg/min or % of control,98.5 ± 18.1,92.7 ± 19,59.4 ± 12.1,,
CCCCCCCCCCCCCCCCNC(=O)C(N)CN (centres unmarked) [Compound 792208],,0.72 ± 0.26,,,,2.81 ± 1.06 pmol/mg/min or % of control,114 ± 21.4,81.9 ± 7.15,72.7 ± 5.76,,
CCCCCCCCCCCCCCC[C@H](N)[C@H](N)CN [Compound 791598],111.3 ± 34.9 % of control,0.99 ± 0.01,10.4 ± 10.1,No,(1.97% of control),,,,,,
CCCCCCCCCCCCCCCCc1ccc(NC(=O)[C@@H](N)CN)cc1 [Compound 792206],,1.12 ± 0.18,,No,,3.78 ± 0.24 pmol/mg/min or % of control,76.6 ± 12.8,,125 ± 37.4,,
CCCCCCCC/C=C\CCCCCCCC[C@@H](O)[C@H](N)CO [Compound 791601],88.5 ± 10.1 % of control,0.42 ± 0.05,144.6 ± 51.7,Yes,(27.32% of control),,,,,,
CCCCCCCCCCCCc1ccc(NC(=O)[C@@H](N)CCN)cc1 [Compound 792212],,0.16 ± 0.07,,No,,2.77 ± 0.65 pmol/mg/min or % of control,163 ± 82.3,138 ± 59,119 ± 32.8,,

# — patent publication US11471430B2, “Sphingosine analogs and use thereof against bacterial lung infections” (Yeda Research and Development Co. Ltd., priority 2018, dated 2022)
